Data published in patent US5073566A, “Angiotensin II antagonist 1,3-imidazoles and use thereas” (Eli Lilly and Company, priority 1989, dated 1991).
Where two headings read alike, the source gives them in different places.

Legend:
[1] = system: angiotensin II receptor; assay: Adrenal Glomerulosa Test System: I125-angiotensin II binding to adrenal membranes; conditions: percent inhibition of I125 angiotensin binding at 10^-5 M of antagonist; rat adrenal membranes; 0.1 nM I125-angiotensin II
Description: The ability for compounds of Formula I to block angiotensin II receptor binding was determined using the adrenal glomerulosa assay.
Binding of I^125 -angiotensin II to adrenal membranes was routinely carried out in 96-well filtration plates. Adrenal membranes were prepared from the capsular portion (glomerulosal layer attached) of rat adrenal glands by differential centrifugation. Briefly, capsules were homogenized in a solution containing sucrose, 250 mM; MgCl2, 1 mM; and tris, 5 mM at pH 7.5 and 4° C. using a polytron at setting 5 for 20 seconds. The homogenate was stirred, gently, for 15 minutes at 4° C. and then centrifuged 10 minutes, at 1000×g, 4° C. The supernatant was centrifuged 30 minutes, at 30,000 ×g, 4° C. and the resulting pellet resuspended in 50 mM tris. Membrane preparations were stored in aliquots at -70° C. until used. Binding of I^125 -angiotensin II to adrenal membranes was performed at room temperature for 90 minutes in 96-well plates containing a hydrophilic polyvinylidene fluoride membrane (0.45 μm, millipore-GV multiscreen). Each 250 μl incubate contained the following (final concentration): tris, 50 mM; NaCl, 120 mM; MgCl2, 5 mM; dithiothrietol 1 mM; bovine serum albumin, 0.05%; I^125 -angiotensin II, 0.1 nM; and adrenal membrane protein, 8-15 μg. Antagonists were added in concentrations from 10 nM to 100 μM. Non-specific binding was measured in the presence of 0.1 μM Sar1, Ile8 angiotensin II. Binding was terminated by vacuum filtration. Receptor-ligand complex trapped on filters was washed 3 times with 300 μl ice-cold wash solution (tris, 50 mM; NaCl, 120 mM; MgCl2, 5 mM; dithiothrietol, 1 mM). Filter discs were dried, punched out and counted in a gamma counter at 52% efficiency. Specific binding represented 96% of total binding (approximately 150 fmol angiotensin II/mg protein). Data are expressed as the percent inhibition of I^125 angiotensin binding at 10^-5 M of antagonist.

[2] = target: T1, angiotensin-induced vasoconstriction (rabbit aorta) (Oryctolagus cuniculus, UniProt P34976); assay: Rabbit Aorta Test System: antagonism of angiotensin II-induced contraction of aortic rings; type: cell-based, New Zealand white rabbits
T1 construct: the thoracic aortas were removed and cleaned of excess fat and connective tissue; from tissue; host or cells: thoracic aorta rings of New Zealand white rabbits
T1 sequence (P34976 1-359): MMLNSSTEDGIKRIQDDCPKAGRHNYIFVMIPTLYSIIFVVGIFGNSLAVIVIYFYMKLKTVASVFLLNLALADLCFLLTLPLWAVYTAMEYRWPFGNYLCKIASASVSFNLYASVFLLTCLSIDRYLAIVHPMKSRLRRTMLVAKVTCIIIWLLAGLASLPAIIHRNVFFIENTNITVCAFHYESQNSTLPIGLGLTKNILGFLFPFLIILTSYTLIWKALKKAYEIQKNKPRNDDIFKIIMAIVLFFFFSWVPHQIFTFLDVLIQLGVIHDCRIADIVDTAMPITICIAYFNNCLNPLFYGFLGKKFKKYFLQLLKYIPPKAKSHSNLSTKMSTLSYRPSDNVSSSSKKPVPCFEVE
Description: The ability to antagonize angiotensin-induced vasoconstriction was evaluated in the rabbit aorta test system.
New Zealand white rabbits (Hazelton, 2-3 kg) were sacrificed by cervical dislocation and the thoracic aortas were removed and cleaned of excess fat and connective tissue. Rings of tissue (3 mm wide) were mounted in 10 ml tissue baths between 2 L-shaped stainless steel hooks. The lower hook was attached to a stationary rod and the upper hook to a force displacement transducer (Grass model FT.03). The bath chambers were maintained at 37° C., aerated with 95% O2 /5% CO2, and contained physiological solution of the following composition (mM): NaCl, 117; glucose, 5.6; NaH2 PO4, 1.0; MgSO4, 0.7; KCl, 5.2; CaCl2, 1.8; NaHCO3, 26; and phentolamine HCl, 0.003.
Rings were equilibrated for 1 hour with 2 g of tension. During the equilibration period, the tissues were washed by overflow every 15 minutes. Rings were then exposed to 10^-8 M angiotensin II (AII) and were allowed to contract until a steady state was reached. Tissues were then washed every 15 minutes for 1 hour. This was repeated every hour until the AII response stabilized. A cumulative concentration-response curve to AII (10^-10 to 10^-7 M) was then obtained. At the conclusion of the concentration-response curve, tissues were washed every 2 minutes until baseline tension was reached, then every 15 minutes for 30 minutes. Compounds were added in a volume of 10 μl DMSO and allowed to incubate for 30 minutes before repeating the concentration-response curve to AII. Contractions to AII were expressed as a percent of the maximum contraction obtained in the control curve (the first AII concentration-response curve). EC50 's (concentration that contracted the tissues to 1/2 the control maximum) for each curve were calculated using a 4 parameter logistics model (NonLin, SAS institute).

[3] = pA2 = -log KB, KB = [molar concentration of antagonist]/[(EC50 AII with antagonist/EC50 AII without antagonist)-1], 30 min incubation, AII 10^-10 to 10^-7 M, read-out: Rabbit Aorta (pA2) (converted)

Row | Structure (SMILES) | Adrenal Glomerulosa (% Inhibition of Binding) [1] [%] | Kb [2, 3] [µM] | Kb [2] [µM]
1 | CCCCCCC(c1nnn[nH]1)n1cnc(C(=O)NC(c2ccccc2)c2ccccc2)c1 (centres unmarked) [Example 48, 1-[1-(Tetrazol-5-yl)heptyl]-N-(diphenylmethyl)-1H-imidazole-4-carboxamide] | 61 | 12 | –
2 | CCCCCCC(c1cccc(C(=O)NC(c2ccccc2)c2ccccc2)c1)c1nnn[nH]1 (centres unmarked) [Example 49, N-(Diphenylmethyl)-3-[1-(tetrazol-5-yl)-heptyl]benzamide] | 9 | 40.7 | –
3 | CCCCCCC(c1nn[nH]n1)n1cnc(NC(=O)c2ccccc2C(=O)O)c1 (centres unmarked) [Example 50, 2-[({1-[1-(Tetrazol-5-yl)heptyl]-1H-imidazol-4-yl}amino)carbonyl]benzoic acid hemihydrate] | 42 | 0.851 | –
4 | CCCCCCC(C(=O)O)n1cnc(NC(=O)C(c2ccccc2)c2ccccc2)c1.Cl (stereo not drawn) [Example 51, α-Hexyl-4-[(diphenylacetyl)amino]-1H-imidazole-1-acetic acid hydrochloride] | 80 | 2.69 | –
5 | CCCCCCC(C(=O)O)n1cnc(C(=O)NC(c2ccccc2)c2ccccc2)n1.Cl (stereo not drawn) [Example 52, α-Hexyl-3-{[(diphenylmethyl)amino]carbonyl}-1H-1,2,4-triazole-1-acetic acid hydrochloride] | 44 | 8.32 | –
6 | CCCCCCC(C(=O)O)n1ccc(C(=O)NC(c2ccccc2)c2ccccc2)c1 (stereo not drawn) [Example 53, 3-{[(Diphenylmethyl)amino]carbonyl}-α-hexyl-1H-pyrrole-1-acetic acid] | 42 | 6.03 | –
7 | CCCCCCC(C(=O)O)n1cc(C(=O)NC(c2ccccc2)c2ccccc2)cn1 (stereo not drawn) [Example 54, 4-{[(Diphenylmethyl)amino]carbonyl}-α-hexyl-1H-pyrazole-1-acetic acid] | 40 | 13.8 | –
8 | CCCCCC(C(=O)O)c1ccc(Oc2ccccc2C(=O)O)cc1 (stereo not drawn) [Example 55, α-Pentyl-4-(2-carboxyphenoxy)phenylacetic acid] | 13 | 1.26 | –
9 | CCCCCCC(C(=O)O)c1ccc(C(=O)c2ccccc2C(=O)O)cc1 (stereo not drawn) [Example 56, α-Hexyl-4-(2-carboxybenzoyl)benzeneacetic acid] | 75 | 1.05 | –
10 | CCCCCCC(C(=O)O)n1cnc(C(=O)NC2CCc3ccccc32)c1.Cl (stereo not drawn) [Example 57, 4-{[(2,3-Dihydro-1H-inden-1-yl)amino]-carbonyl}-α-hexyl-1H-imidazole-1-acetic acid hydrochloride] | 77 | 2.63 | –
11 | CCCCCCC(C(=O)O)n1cnc(C(=O)NC(c2ccccc2)c2ccccc2)c1.Cl (stereo not drawn) [Example 58, 4-{[(Diphenylmethyl)amino]carbonyl}-α-hexyl-1H-imidazole-1-aceticacid hydrochloride] | 69 | 4.27 | –
12 | CCCCCCC(C(=O)O)n1cnc(NC(=O)C2(O)c3ccccc3-c3ccccc32)c1 (stereo not drawn) [Example 59, α-Hexyl-4-[(9-hydroxy-9H-fluoren-9-ylcarbonyl)-amino]-1H-imidazole-1-acetic acid] | 67 | – | 3.09
13 | CCCCCC(CO)n1cnc(NC(=O)c2ccccc2C(=O)O)c1 (centres unmarked) [Example 60, 2-[({1-[1-(Hydroxymethyl)hexyl]-1H-imidazol-4-yl}amino)carbonyl]benzoic acid] | 15 | 8.32 | –
14 | CCCCCCC(C(=O)O)n1cnc(NC(=O)c2ccccc2O)c1 (stereo not drawn) [Example 76, α-Hexyl-4-[(2-hydroxybenzoyl)amino]-1H-imidazole-1-acetic acid] | 35 | 1.26 | –
15 | CCCCCCC(C(=O)O)n1cnc(NC(=O)c2c(O)ccc3ccccc23)c1 (stereo not drawn) [Example 77, α-Hexyl-4-{[(2-hydroxy-1-naphthalenyl)-carbonyl]amino}imidazole-1-acetic acid] | 36 | 5.5 | –
16 | CCCCCCC(C(=O)O)n1cnc(NC(=O)c2cccc(O)c2)c1 (stereo not drawn) [Example 78, α-Hexyl-4-[(3-hydroxybenzoyl)amino]-1H-imidazole-1-acetic acid hemihydrate] | 21 | 7.94 | –
17 | CCCCCCC(C(=O)O)n1cnc(NC(=O)c2ccc(O)c(O)c2)c1 (stereo not drawn) [Example 79, α-Hexyl-4-[(3,4-dihydroxybenzoyl)amino]-1H-imidazole-1-acetic acid (1.75 hydrate)] | 18 | 11 | –
18 | CCCCCCC(C(=O)O)n1cnc(C(=O)Nc2ccccc2CO)c1.Cl (stereo not drawn) [Example 83, α-Hexyl-4-({[2-(hydroxymethyl)phenyl]-amino}carbonyl)-1H-imidazole-1-acetic acid hydrochloride] | 53 | 3.89 | –
19 | CCCCCCC(C(=O)O)n1cnc(C(=O)Nc2ccccc2CCCCO)c1.Cl (stereo not drawn) [Example 84, α-Hexyl-4-({[2-(4-hydroxybutyl)phenyl]-amino}carbonyl)-1H-imidazole-1-acetic acid hydrochloride] | 77 | 2.29 | –
20 | CCCCCCC(C(=O)O)n1cnc(C(=O)Nc2cccc(CO)c2)c1.Cl (stereo not drawn) [Example 85, α-Hexyl-4-({[3-(hydroxymethyl)phenyl]-amino}carbonyl)-1H-imidazole-1-acetic acid hydrochloride] | 0 | 15.8 | –
21 | CCCCCCC(C(=O)O)n1cnc(C(=O)Nc2ccccc2CCO)c1.Cl (stereo not drawn) [Example 86, α-Hexyl-4-({[2-(2-hydroxyethyl)phenyl]-amino}carbonyl)-1H-imidazole-1-acetic acid hydrochloride] | 57 | 3.24 | –
22 | CCCCCCC(C(=O)O)n1cnc(C(=O)Nc2ccc(CCO)cc2)c1.Cl (stereo not drawn) [Example 87, α-Hexyl-4-({[4-(2-hydroxyethyl)phenyl]-amino}carbonyl)-1H-imidazole-1-acetic acid hydrochloride] | 7 | 23.4 | –
23 | CCCCC(C(=O)O)n1cnc(C(=O)Nc2ccccc2O)c1.Cl (stereo not drawn) [Example 89, α-Butyl-4-{[(2-hydroxyphenyl)amino]-carbonyl}-1H-imidazole-1-acetic acid hydrochloride] | 54 | 38.9 | –
24 | CCCCCCC(C(=O)O)c1ccc(Cc2ccccc2C(=O)O)cc1 (stereo not drawn) [Example 94, 4-[(2-Carboxyphenyl)methyl]-α-hexyl-benzeneacetic acid] | 58 | 1.66 | –
25 | CCCCCCC(C(=O)O)n1cnc(NC(=O)c2cccc(N)c2C(=O)O)c1 (stereo not drawn) [Example 96, α-Hexyl-4-[(3-amino-2-carboxybenzoyl)amino]-1H-imidazole-1-aceticacid] | 59 | 0.372 | –
